pIC50: −log10 of the molar value.
Test system: Plasmodium falciparum
Assay: MMV: IC50 determined against P. falciparum Dd2-luc strain using a Malaria Sybr Green I Fluorescence assay. Starting conditions were 1% trophozoite synchronised parasites at 2% haematocrit. Fluorescence detection completed after 48hr incubation at 37 degrees C under 1% O2, 3% CO2 and balance N2.
Assay type: functional, organism-based
Settings: Dd2, 48 h

Compound	pIC50
CN1CCN(c2ccc(Nc3c4ccccc4nc4ccccc34)cc2)CC1	5.80
COc1ccc(Nc2nc(N/N=C/c3ccc(O)cc3)nc(Nc3ccc([N+](=O)[O-])cc3)n2)cc1	5.81
CN(C)CCCNc1c2ccccc2nc2ccccc12	6.63
COc1ccc(C2c3ccc4ccccc4c3Oc3ncn(CCCN(C)C)c(=N)c32)cc1 (stereo not given)	6.35
c1ccc(/C2=N/c3ccccc3/N=C(/c3ccccc3)c3ccccc32)cc1	6.20
COc1ccc(C2c3ccc4ccccc4c3Oc3ncn(CCCn4ccnc4)c(=N)c32)cc1OC (stereo not given)	5.91
CCOC(=O)c1cnc2ccc(CC)cc2c1O	6.19
CCN(CC)CCNc1ccnc2cc(Cl)ccc12	7.36
O=C(Nc1ccc(Br)cc1)Nc1cccc(Cl)c1	5.45
Cc1ccc(Nc2nc(-c3ccccn3)cs2)cc1	6.32
CN(C)CCNc1cc(-c2ccccc2)nc2ccccc12	5.44
Cc1cc(NCCN2CCCCC2)c2ccc3ccccc3c2n1	6.51
O=C(NCc1ccco1)C1CCN(S(=O)(=O)c2ccc(Cl)cc2)CC1	6.06
CCOc1ccc(N2C(N)=NC(N)=NC2(C)C)cc1	5.09
COc1ccc2nc(C)cc(Nc3ccc(Cl)cc3)c2c1	5.93
CCc1c(C)c(=N)c2ccccc2n1C	5.56
COc1ccc2nc(C)cc(Nc3cccc(O)c3)c2c1	6.03
COc1cc2cc(C(=O)Nc3ccccc3)c(N)nc2cc1OC	6.05
Oc1ccc(-c2nc(-c3ccc4oc5ccc(-c6[nH]c(-c7ccc(O)cc7)nc6-c6ccccc6)cc5c4c3)c(-c3ccccc3)[nH]2)cc1	6.17
CCOc1ccc(CN2CCN(CC(O)COc3ccc(OCC(O)CN4CCN(Cc5ccc(OCC)cc5)CC4)cc3)CC2)cc1 (stereo not given)	6.02
CCN(CC)CCn1c(=N)n(CC(O)c2ccc(Cl)c(Cl)c2)c2ccccc21 (stereo not given)	6.39
Brc1ccc(Nc2nc3ccccc3nc2Nc2ccc(Br)cc2)cc1	5.82
COc1cccc(C=Cc2nc(=O)c3ccccc3o2)c1OC	6.37

Compound	pIC50
Cc1ccnc(NC(c2cccc(OCc3ccccc3)c2)c2ccc3cccnc3c2O)c1 (stereo not given)	6.02
COc1ccc(CCn2c(=N)c(C(=O)NCc3cccnc3)cc3c(=O)n4cccc(C)c4nc32)cc1	6.57
CCCN(CCC)CC(O)COc1ccccc1C(=O)Nc1ccccc1 (stereo not given)	6.68
Cc1ccc(CSCc2ccc(C(=O)NC3CC3)o2)cc1	6.26
Cc1cc(Nc2ccc(OCc3ccccc3)cc2)nc2cc(O)ccc12	6.53
CN1CCN(c2c3c(c(C#N)c4nc5ccccc5n24)CCC3)CC1	5.83
CCN(CC)CCNc1ccnc2cc3ccccc3cc12	6.33
CCOc1ccc2nc(C)cc(Nc3ccc(N(C)C)cc3)c2c1	6.00
COc1ccc(Nc2cc(C)nc(NCc3ccccc3)n2)cc1	6.51
COc1cc(-c2nc(-c3ccc(Sc4ccccc4)cc3)c(-c3ccccc3)[nH]2)cc(OC)c1O	6.13
Cc1cc(Nc2cccc(F)c2)nc(NCc2ccccc2)n1	6.26
COc1ccc2c(c1)OC(O)(C(F)(F)C(F)(F)F)CC2=O (stereo not given)	6.43
Cc1ccc(-c2cc3nc4c(c(O)n3n2)CCCC4)cc1	5.75
CC(=O)NCCc1nc2ccccc2n1Cc1ccc(C(C)C)cc1	5.83
OCCNc1nc(Nc2ccc(Cl)c(Cl)c2)nc2ccccc12	6.38
COc1nc(Nc2ccc(C(C)C)cc2)nc(OC)n1	6.44
CCOC(=O)c1cnc2ccc(OC)cc2c1Nc1ccc(N2CCN(C)CC2)cc1	6.11
COc1ccc(C(=O)C(CCC(CNC(C)(C)C)C(=O)c2ccc(OC)cc2)CNC(C)(C)C)cc1 (stereo not given)	5.80
CC(C)CCNCC(O)Cn1c2ccccc2c2ccccc21 (stereo not given)	6.04
Cc1c(C)n(Cc2ccc(F)cc2)c2ccc(C(=O)NCc3ccco3)cc12	7.08
CCOc1cc2c(cc1OCC)C(c1cc(Cl)ccc1O)NCC2 (stereo not given)	5.77
CCOC(=O)c1cnc2ccc(Cl)cc2c1NCCCN(C)C	5.93
Cc1cc(C)c2c(c1)OCN(Cc1ccccc1Cl)C2	6.53

Compound	pIC50
COc1cc(OC)c(N(C)C(=O)c2cc3c(s2)-c2ccccc2S(=O)(=O)C3)cc1Cl	6.53
CCOc1ccccc1NC(=O)CN1CCN(C(=O)c2ccco2)CC1	5.54
c1ccc2c(NCCc3c[nH]c4ccccc34)c3ccccc3nc2c1	6.70
O=C1c2ccccc2C2=Nc3ccccc3SC(c3cccc(F)c3)C12 (stereo not given)	6.12
Cc1cc(NC(=O)C2c3ccccc3C(=O)N(CC(C)C)C2c2cccs2)no1 (stereo not given)	6.80
Cc1ccc(Cn2c(N3CCC(C(=O)NCc4cccs4)CC3)nc3ccccc32)cc1	6.08
CCOc1cc2c(cc1OCC)C(c1cc(C)c(O)c(C)c1)NCC2 (stereo not given)	6.18
O=C1CC(O)(C(F)(F)C(F)(F)F)Oc2ccccc21 (stereo not given)	5.99
Cc1ccc2nc(C)cc(Nc3cccc(C(F)(F)F)c3)c2c1	5.86
CCOc1cccc2sc(N(Cc3cccnc3)C(=O)C3CCCCC3)nc12	5.57
CC(C)c1ccc(CNCC(O)c2ccccc2)cc1 (stereo not given)	5.97
CC1CC(C)CN(C(=O)c2ccc(Cl)cc2Cl)C1 (stereo not given)	5.73
COc1ccccc1CNC(=O)C1c2ccccc2C(=O)N(CC(C)C)C1c1cccs1 (stereo not given)	5.94
CCOc1cc2c(cc1OCC)C(c1cc(Cl)c(O)c(OCC)c1)NCC2 (stereo not given)	5.79
OC(CNC1CCCC1)Cn1c2ccccc2c2ccccc21 (stereo not given)	6.34
CCc1ccc(Nc2cc(C)c3ccc(O)cc3n2)cc1	6.50
CCN(CC)c1cc(C)c2cc(NC(=O)c3cccc(OC)c3)ccc2n1	5.56
COc1ccc(C(O)(CCC(C)C)C(CN2CCOCC2)c2ccc(Cl)cc2)cc1 (stereo not given)	5.45
CCCCCCn1c(=N)n(CC(O)COc2cccc(C)c2)c2ccccc21 (stereo not given)	5.74
Cc1ccc(NC(=O)Nc2cccc(Cl)c2)cc1F	5.92
CC(C)OCc1cc(CN2CCN(c3cccc(Cl)c3)CC2)c(O)c2ncccc12	6.24
Oc1ccc(Br)cc1CN1CCN(Cc2cccc(F)c2)CC1	5.89
COc1ccc(-c2cc(=O)oc3c4c(ccc23)OCN(Cc2ccc(F)cc2)C4)cc1	6.07

Compound	pIC50
CSc1ccccc1C(=O)Nc1nc(-c2ccccn2)cs1	5.75
CC(O)(c1ccc(Cl)cc1)C(CN1CCCCC1)c1ccccc1 (stereo not given)	6.50
CCCCc1ccc(NS(=O)(=O)c2cc3c4c(c2)CCN4C(=O)CC3)cc1	5.43
CCCOCc1cc(CN2CCN(c3cccc(Cl)c3)CC2)c(O)c2ncccc12	6.02
CCOc1ccc2c(c1)CN(Cc1ccc(Cl)cc1)CO2	6.21
CCOc1ccccc1CNC(=O)C1c2ccccc2C(=O)N(CC(C)C)C1c1cccs1 (stereo not given)	5.91
CC(C)(C)c1ccc2c(c1)CN(Cc1ccc(Cl)cc1)CO2	6.71
CCCCC(O)(c1ccc(Cl)cc1)C(CN1CCOCC1)c1ccc(Cl)cc1 (stereo not given)	5.45
O=c1nc(C=Cc2ccc(Cl)cc2)oc2ccccc12	5.93
O=C(NCc1ccco1)C1CCN(S(=O)(=O)c2ccc(Br)cc2)CC1	6.05
c1ccc(CNc2nc(Nc3ccccc3)nc3ccccc23)cc1	6.05
CN(C)c1ccc(N2C(N)=NC(N)=NC2(C)C)cc1	6.80
CCOc1ccc(Nc2ccnc3cc(Cl)ccc23)cc1	6.11
CCOC(=O)c1ccc2nc(-c3ccccc3)cc(O)c2c1	6.14
Clc1ccc2[nH]c3c(NCCCN4CCOCC4)ncnc3c2c1	6.21
COc1ccc(Nc2nc(NCc3ccccc3)c3ccccc3n2)cc1	7.04
COc1ccc(OC)c(C2C3=C(CC(C)(C)CC3=O)N(c3ccc(Cl)c(Cl)c3)C3=C2C(=O)CC(C)(C)C3)c1	5.53
Cc1cccc(N2C(=O)C3C(C2=O)C2(c4ccccc4)C(=O)C3(c3ccccc3)C(c3ccc4c(c3)OCO4)=C2c2ccc3c(c2)OCO3)c1 (stereo not given)	5.77
COc1ccc2c(c1OC)C(=O)N1c3ccccc3N=C(c3ccc(C)cc3)CC21 (stereo not given)	5.77
Oc1c(CN2CCN(c3ccccc3F)CC2)cc(Br)c2cccnc12	5.87
OC(CNCc1ccccc1)Cn1c2ccccc2c2ccccc21 (stereo not given)	5.96
COc1ccc(CCNC(=O)c2cc(S(=O)(=O)N3CC(C)CC(C)C3)ccc2Sc2ccc(F)cc2)cc1OC (stereo not given)	5.88
Cc1ccc(F)cc1NC(=O)c1cc(Cl)ccc1Nc1ccccc1	6.25

Compound	pIC50
CCOc1ccc(Nc2c3ccccc3nc3ccccc23)cc1	5.78
CCOc1ccc2nc(C)cc(Nc3ccc(Br)cc3)c2c1	6.10
CCCCc1c(C)nc2c(OC)cccc2c1O	5.85
Clc1ccc2c(N3CCCC3)ccnc2c1	5.89
COc1cc2c3cc1Oc1c(OC)c(OC)cc4c1C(Cc1ccc(O)c(c1)Oc1ccc(cc1)CC3N(C)CC2)N(C)CC4 (stereo not given)	6.16
COc1ccc(C2Sc3ccccc3N=C3C2=C(O)c2ccccc23)cc1 (stereo not given)	6.14
CCCCCCC(O)(c1ccc(F)cc1)C(CN1CCOCC1)c1ccccc1 (stereo not given)	5.47
Cc1ccc(C)c(-c2csc(Nc3ccc(C)c(C)c3)n2)c1	5.98
CCOc1c(Br)cc(C2C(C(=O)OC)=CN(C)C=C2C(=O)OC)cc1OC	6.10
CCOc1ccc(CCNC(=O)c2cccs2)cc1OCC	5.57
CCCN(CCC)CCCNC(=O)c1cc2c(-c3ccc(OC)c(OC)c3)nn(C)c2s1	5.94
Cc1cc(N2CCN(C3CCCC3)CC2)n2c(nc3ccccc32)c1C#N	6.04
CCCCCn1c(=N)n(CC(O)COc2cccc(C)c2)c2ccccc21 (stereo not given)	5.63
Cc1ccc(Nc2nc(NCCO)c3ccccc3n2)cc1C	6.01
CCCCOc1ccc(C(=O)Nc2cc(C)on2)cc1	6.11
CC1CCCCN1CCCNC(=O)c1ccc2c(c1)sc1nc(-c3ccc(F)cc3)cn12 (stereo not given)	6.25
COc1ccccc1N1C(=N)SC(=Cc2ccc(OCc3ccccc3F)cc2)C1=O	6.09
CCc1ccc(Nc2cc(C)nc3nc(C)nn23)cc1	6.16
COc1ccc(NC(=O)C2c3ccccc3C(=O)N(CC(C)C)C2c2cccs2)cc1 (stereo not given)	5.90
CCOC(=O)C1=CN(C)C=C(C(=O)OCC)C1c1cc(Br)c(OCC)c(OC)c1	6.34
C=CCc1c(C)nc2ccccc2c1O	5.83
CN1CCN(c2nc(Nc3ccc(O)cc3)nc3ccccc23)CC1	5.85
CCCCN(CCCC)S(=O)(=O)c1ccc(NC(=O)c2ccco2)cc1	5.94

Reference: ChEMBL document CHEMBL3392922, “MMV box screening in the Dd2 P. falciparum strain”
